Results: patent US20260071220A1, “CONJUGATE OF NUCLEOTIDE ANALOG-CONTAINING DOUBLE-STRANDED RNAI ANALOG” (BaseCure Therapeutics LLC, priority 2022, published 2026)
In the oligonucleotide strings, read from the 5' end, every base follows the letter of its sugar. An asterisk marks phosphorothioate; unmarked linkages are phosphodiester. Other units and linkages are bracketed, terminal groups are in braces. A string of capitals states the bases alone. {D01} = GalNAc ligand D01, attached to sense strand by a phosphodiester bond; m = 2'-O-methyl; f = 2'-fluoro

What was measured:
HEK BLUE hTLR3 = experiment: Cell activity detection (CellTiter-Glo) in hTLR3 cells; type: cell-based, human; settings: 24 h, maximum concentration 200 nM, read-out: CC50
Experimental: (§1) 1) The conjugate of the present invention was diluted to a concentration that was 20 times a final concentration, the diluted conjugate was mixed with RNAiMAX-OPTI MEM (RNAiMAX:OPTI MEM=3:47) at a ratio of 1:1 and incubated for 15 min at room temperature.
(§2) 2) 10 μL of incubated conjugate of the present invention was added into a corresponding cell plate, with 10 concentrations in total, a maximum concentration being 200 nM, and double duplicated wells for each concentration.
(§3) 4) 90 μL of cells were seeded into a 96-well plate with the conjugate at the density of 50,000 cells/well.
(§4) 5) The conjugate of the present invention and the cells were co-incubated for 24 h in an incubator under the conditions of 37° C. and 5% CO2.
(§5) 8) Cell activity detection: the operation was carried out according to the method in the Celltiter-Glo specification, and a chemiluminescence signals (RLU) were detected using the multifunctional microplate reader Flexstation III.
(§6) Compound activity: the OD650 values were analyzed using GraphPad Prism software, and a dose effect curve of the compound was fit, and the EC50 value of the compound was calculated. Cell activity detection: the calculation formula of cell activity % was as follows. The cell activity % value was analyzed using GraphPadPrism software, the dose effect curve of the compound was fit, and the CC50 value of the compound on cell was calculated.

hTLR8 = biological target: T1, hTLR8 (Homo sapiens, UniProt Q9NR97); experiment: Agonistic activity on hTLR8 cells (HEK BLUE, QUANTI-Blue OD650); type: cell-based; settings: 24 h, transfection with RNAiMAX, maximum concentration 200 nM
T1 construct: host or cells: HEK BLUE hTLR8 (HEK293-derived SEAP reporter line)
T1 sequence (Q9NR97 27-1041): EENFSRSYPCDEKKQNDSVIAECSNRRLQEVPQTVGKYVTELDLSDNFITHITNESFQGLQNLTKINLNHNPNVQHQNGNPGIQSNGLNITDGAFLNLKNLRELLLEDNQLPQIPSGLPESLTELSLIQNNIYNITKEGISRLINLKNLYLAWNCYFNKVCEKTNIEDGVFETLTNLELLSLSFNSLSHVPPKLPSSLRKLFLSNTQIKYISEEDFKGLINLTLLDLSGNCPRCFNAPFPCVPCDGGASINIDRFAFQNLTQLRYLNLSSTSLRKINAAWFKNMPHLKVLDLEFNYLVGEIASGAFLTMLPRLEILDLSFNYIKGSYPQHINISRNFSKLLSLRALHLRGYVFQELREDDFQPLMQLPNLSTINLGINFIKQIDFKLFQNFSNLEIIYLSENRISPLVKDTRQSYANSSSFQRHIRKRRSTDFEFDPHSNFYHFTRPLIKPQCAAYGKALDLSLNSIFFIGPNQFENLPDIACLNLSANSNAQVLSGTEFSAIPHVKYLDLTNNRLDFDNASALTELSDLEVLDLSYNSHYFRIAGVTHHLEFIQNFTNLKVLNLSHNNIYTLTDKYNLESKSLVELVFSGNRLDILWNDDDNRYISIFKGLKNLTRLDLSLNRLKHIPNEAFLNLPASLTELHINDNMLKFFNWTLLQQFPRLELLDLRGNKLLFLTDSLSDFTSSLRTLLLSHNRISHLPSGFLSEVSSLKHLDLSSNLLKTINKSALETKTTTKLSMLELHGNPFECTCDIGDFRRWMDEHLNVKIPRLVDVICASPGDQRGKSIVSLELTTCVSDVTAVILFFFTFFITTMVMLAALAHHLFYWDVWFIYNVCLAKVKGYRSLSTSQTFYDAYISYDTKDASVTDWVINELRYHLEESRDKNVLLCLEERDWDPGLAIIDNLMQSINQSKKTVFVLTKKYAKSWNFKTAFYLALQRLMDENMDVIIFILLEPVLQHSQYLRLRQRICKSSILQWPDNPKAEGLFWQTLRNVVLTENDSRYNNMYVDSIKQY
Experimental: as §1, §2
(§7) 10 μL of 0.5 μM BLOCK-iT™ Alexa Fluor® Red Fluorescent Control was added into 2 transfection positive control wells.
4) 90 μL of cells were seeded into a 96-well plate with the conjugate at the density of 50,000 cells/well. […]
(§8) 7) Compound activity detection: 20 μL of cell supernatant was taken from each well and added into an experimental plate containing 180 μL of QUANTI-Blue™ reagent and then incubated for 1 h at 37° C., followed by detecting an absorbance values at 650 nm (OD650) using the multifunctional microplate reader Flexstation III.
Compound activity: the OD650 values were analyzed using GraphPad Prism software, and a dose effect curve of the compound was fit, and the EC50 value of the compound was calculated. […] The cell activity % value was analyzed using GraphPadPrism software, the dose effect curve of the compound was fit, and the CC50 value of the compound on cell was calculated.

HEK BLUE hTLR7 = experiment: Cell activity detection (CellTiter-Glo) in hTLR7 cells; type: cell-based, human; settings: 24 h, maximum concentration 200 nM, read-out: CC50
Experimental: as §1, §2, §3, §4, §5, §6

hTLR3 = biological target: T2, hTLR3 (Homo sapiens, UniProt O15455); experiment: Agonistic activity on hTLR3 cells (HEK BLUE, QUANTI-Blue OD650); type: cell-based; settings: 24 h, transfection with RNAiMAX, maximum concentration 200 nM, read-out: EC50
T2 construct: host or cells: HEK BLUE hTLR3 (HEK293-derived SEAP reporter line)
T2 sequence (O15455 24-904): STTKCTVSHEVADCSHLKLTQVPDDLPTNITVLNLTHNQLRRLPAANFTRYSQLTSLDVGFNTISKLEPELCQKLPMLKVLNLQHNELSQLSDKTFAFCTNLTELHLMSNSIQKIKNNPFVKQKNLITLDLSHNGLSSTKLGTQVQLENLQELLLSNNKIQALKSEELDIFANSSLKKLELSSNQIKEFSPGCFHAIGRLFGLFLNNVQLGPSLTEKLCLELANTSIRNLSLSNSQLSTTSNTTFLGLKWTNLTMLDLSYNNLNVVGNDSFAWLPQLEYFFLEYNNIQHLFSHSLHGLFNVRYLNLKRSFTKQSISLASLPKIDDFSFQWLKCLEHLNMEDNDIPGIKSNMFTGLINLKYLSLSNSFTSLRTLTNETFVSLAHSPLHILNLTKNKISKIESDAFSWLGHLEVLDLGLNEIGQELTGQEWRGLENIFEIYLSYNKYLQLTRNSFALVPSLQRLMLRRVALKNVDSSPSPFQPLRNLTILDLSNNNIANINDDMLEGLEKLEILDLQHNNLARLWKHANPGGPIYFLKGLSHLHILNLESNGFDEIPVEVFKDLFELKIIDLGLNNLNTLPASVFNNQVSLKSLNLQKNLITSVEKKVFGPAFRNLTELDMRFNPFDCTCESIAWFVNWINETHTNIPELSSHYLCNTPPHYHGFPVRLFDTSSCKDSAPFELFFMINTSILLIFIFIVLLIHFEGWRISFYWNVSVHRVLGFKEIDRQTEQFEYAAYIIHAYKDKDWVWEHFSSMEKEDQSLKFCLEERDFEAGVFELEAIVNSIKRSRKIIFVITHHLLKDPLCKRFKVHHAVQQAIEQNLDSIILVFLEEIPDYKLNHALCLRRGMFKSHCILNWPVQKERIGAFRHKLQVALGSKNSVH
Experimental: as §1, §2, §7, §3, §4, §8, §6

HEK BLUE hTLR8 = experiment: Cell activity detection (CellTiter-Glo) in hTLR8 cells; type: cell-based, human; settings: 24 h, maximum concentration 200 nM, read-out: CC50
Experimental: as §1, §2, §3, §4, §5, §6

Conjugate 2: Double-stranded RNAi analog against AGT, D01 GalNAc ligand on sense strand; sense SEQ ID NO: 6, antisense SEQ ID NO: 2 containing Z (sense mA*mU*fCfCmAfCfAfAmUmGmAmGmAfGmUmAmCmA-{D01}; antisense CUCACAUGUACNCUCAUUGUGGAUGACGA; antisense: chemistry not given here; antisense strand modified, includes nucleotide analog Z, further chemistry not fully specified)
> 200 nM: CC50 (HEK BLUE hTLR3) | EC50 (hTLR8) | CC50 (HEK BLUE hTLR7) | EC50 (hTLR3) | CC50 (HEK BLUE hTLR8)

Conjugate 3: Double-stranded RNAi analog against AGT, D01 GalNAc ligand on sense strand; sense SEQ ID NO: 7, antisense SEQ ID NO: 2 containing Z (sense mA*mU*fCfCmAfCfAfAmUmGmAfGmAmGmUmAmCmA-{D01}; antisense CUCACAUGUACNCUCAUUGUGGAUGACGA; antisense: chemistry not given here; antisense strand modified, includes nucleotide analog Z, further chemistry not fully specified)
> 200 nM: CC50 (HEK BLUE hTLR3) | EC50 (hTLR8) | CC50 (HEK BLUE hTLR7) | EC50 (hTLR3) | CC50 (HEK BLUE hTLR8)
